Columns and labels:
[1] = target: T1, ALK(G1202R/L1196M) (Homo sapiens, UniProt Q9UM73, G1202R/L1196M); assay: In vitro kinase inhibitory activity assay, Experimental method 1 (ADP-Glo); assay type: biochemical; settings: final ATP 50 µM, read-out: Kinase half maximal inhibitory concentration IC50 ALK^G1202R/L1196M
T1 construct: purchased Carna
Method: (§1) The kinase inhibitory activity assays of the compounds against ALK, ALK^L1196M, ALK^G1202R, ALK^G1202R/L1196M, ROS1, and TRKB were conducted at Wuhan Heyan Biotechnology Co., Ltd. or Hefei PreceDo Biotechnology Co., Ltd.
(§2) Experimental materials: ALK Active, ALK(L1196M) Active, ALK(G1202R) Active, and ALK(G1202R/L1196M) Active were purchased from Carna; SRC Substrate was purchased from SignalChem; IGF1R tide was purchased from SignalChem; ADP-Glo Kinase Assay was purchased from Promega; Kinase assay buffer III was purchased from SignalChem; and Nivo multimode plate reader (PerkinElmer).
(§3) Each concentration of the compounds was further diluted 20-fold using 1X kinase buffer to prepare compound working solutions containing 5% DMSO. 1 µL of each concentration gradient working solution was added to a microplate, with duplicate wells set for each concentration. 2 µL of ALK enzyme (15 ng per well) and 2 µL of a mixture of substrate and ATP (25 µM ATP, 0.5 µg/µL SRC Substrate) were added to the microplate. […] The reaction system was placed at 25°C for 1 hour. After the reaction, 5 µL of ADP-Glo reagent was added to each well and reacted at 25°C for another 40 minutes. After the reaction, 10 µL of kinase detection reagent was added to each well and reacted at 25°C for 30 minutes. Chemiluminescence was then measured using the PerkinElmer Nivo multimode plate reader with an integration time of 0.5 seconds.
ALK (G1202R/L1196M) kinase inhibition assay method: The preparation method for the working solution of the test compound was the same as for the ALK kinase. […] The subsequent steps were the same as for ALK kinase.
(§4) The IC50 value could then be derived by performing a curve fit using a four-parameter logistic model (obtained using the "log(inhibitor) vs. response -- Variable slope" mode in GraphPad Prism).

[2] = target: T2, TRKB (Homo sapiens, UniProt Q16620); assay: as above; assay type: biochemical; settings: read-out: Kinase half maximal inhibitory concentration IC50 TRKB
T2 construct: purchased Carna
T2 sequence (Q16620 32-822): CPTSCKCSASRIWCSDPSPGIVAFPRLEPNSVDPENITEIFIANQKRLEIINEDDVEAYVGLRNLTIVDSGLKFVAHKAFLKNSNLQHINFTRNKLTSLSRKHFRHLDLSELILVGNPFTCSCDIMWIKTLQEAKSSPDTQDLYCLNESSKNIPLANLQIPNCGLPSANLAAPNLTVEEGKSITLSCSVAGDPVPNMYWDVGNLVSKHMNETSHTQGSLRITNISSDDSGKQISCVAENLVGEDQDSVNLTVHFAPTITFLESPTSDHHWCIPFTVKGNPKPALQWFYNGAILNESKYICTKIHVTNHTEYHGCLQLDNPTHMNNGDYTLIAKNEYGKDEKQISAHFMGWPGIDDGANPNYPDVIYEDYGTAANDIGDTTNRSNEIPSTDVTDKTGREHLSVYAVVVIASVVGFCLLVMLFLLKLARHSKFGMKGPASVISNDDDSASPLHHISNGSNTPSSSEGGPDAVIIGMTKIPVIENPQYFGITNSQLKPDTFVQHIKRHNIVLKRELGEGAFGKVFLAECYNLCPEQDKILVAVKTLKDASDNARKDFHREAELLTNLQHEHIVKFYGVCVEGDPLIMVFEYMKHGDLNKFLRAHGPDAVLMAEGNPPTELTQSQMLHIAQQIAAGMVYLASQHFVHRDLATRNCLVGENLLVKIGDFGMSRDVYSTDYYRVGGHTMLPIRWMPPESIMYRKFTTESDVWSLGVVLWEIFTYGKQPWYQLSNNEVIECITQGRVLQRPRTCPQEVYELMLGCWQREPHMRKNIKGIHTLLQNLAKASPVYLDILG
Method: as §1, §2, §3
TRKB kinase inhibition assay method: The preparation method for the working solution of the test compound was the same as for the ALK kinase. 2 µL of TRKB (0.5 ng per well) and 4 µL of a mixture of substrate and ATP (5 µM ATP, 0.5 µM SRC Substrate) were added to the microplate. […] The subsequent steps were the same as for ALK kinase.
as §4

[3] = target: T3, ALK (Homo sapiens, UniProt Q9UM73); assay: as above; assay type: biochemical; settings: final ATP 10 µM, read-out: Kinase half maximal inhibitory concentration IC50 ALK
T3 construct: purchased Carna
T3 sequence (Q9UM73 19-1620): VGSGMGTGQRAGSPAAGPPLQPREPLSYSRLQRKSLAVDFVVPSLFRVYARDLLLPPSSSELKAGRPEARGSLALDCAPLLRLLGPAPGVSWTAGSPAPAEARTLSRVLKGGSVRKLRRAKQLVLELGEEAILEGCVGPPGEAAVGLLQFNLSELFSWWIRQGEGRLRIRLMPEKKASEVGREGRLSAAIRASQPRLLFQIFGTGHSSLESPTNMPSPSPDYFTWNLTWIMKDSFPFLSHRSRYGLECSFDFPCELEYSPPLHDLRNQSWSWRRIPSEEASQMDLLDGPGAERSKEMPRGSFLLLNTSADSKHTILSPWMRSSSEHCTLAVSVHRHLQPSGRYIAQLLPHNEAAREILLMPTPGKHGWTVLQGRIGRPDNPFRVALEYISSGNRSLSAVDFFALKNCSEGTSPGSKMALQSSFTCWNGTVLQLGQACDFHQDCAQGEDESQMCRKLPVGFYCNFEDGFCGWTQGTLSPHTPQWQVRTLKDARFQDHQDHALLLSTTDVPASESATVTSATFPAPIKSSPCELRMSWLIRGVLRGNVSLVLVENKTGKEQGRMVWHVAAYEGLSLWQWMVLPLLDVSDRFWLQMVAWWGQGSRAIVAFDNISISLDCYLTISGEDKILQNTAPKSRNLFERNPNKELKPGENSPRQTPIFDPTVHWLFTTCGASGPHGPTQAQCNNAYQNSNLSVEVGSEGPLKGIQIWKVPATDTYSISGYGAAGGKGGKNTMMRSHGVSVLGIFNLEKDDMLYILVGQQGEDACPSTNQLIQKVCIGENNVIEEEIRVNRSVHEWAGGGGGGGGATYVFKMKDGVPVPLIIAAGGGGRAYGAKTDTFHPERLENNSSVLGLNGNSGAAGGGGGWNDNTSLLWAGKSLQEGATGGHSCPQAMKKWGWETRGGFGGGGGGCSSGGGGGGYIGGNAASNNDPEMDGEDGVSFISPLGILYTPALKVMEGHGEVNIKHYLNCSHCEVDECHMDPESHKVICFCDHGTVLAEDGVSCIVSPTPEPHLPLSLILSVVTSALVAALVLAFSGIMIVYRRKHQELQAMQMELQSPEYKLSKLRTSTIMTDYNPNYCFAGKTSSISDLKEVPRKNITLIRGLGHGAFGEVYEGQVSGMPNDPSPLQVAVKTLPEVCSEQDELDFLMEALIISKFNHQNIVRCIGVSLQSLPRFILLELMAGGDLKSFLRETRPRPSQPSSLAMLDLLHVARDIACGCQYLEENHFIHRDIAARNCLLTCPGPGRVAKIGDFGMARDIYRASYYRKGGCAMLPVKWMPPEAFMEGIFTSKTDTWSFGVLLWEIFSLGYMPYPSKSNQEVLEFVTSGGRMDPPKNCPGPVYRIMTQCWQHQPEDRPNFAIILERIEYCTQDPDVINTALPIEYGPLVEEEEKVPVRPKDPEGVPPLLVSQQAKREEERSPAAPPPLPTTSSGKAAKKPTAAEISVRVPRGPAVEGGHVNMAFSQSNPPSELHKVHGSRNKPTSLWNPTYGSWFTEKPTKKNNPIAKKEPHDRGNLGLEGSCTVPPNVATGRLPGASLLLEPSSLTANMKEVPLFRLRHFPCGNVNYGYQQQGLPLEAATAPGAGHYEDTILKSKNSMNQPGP
Method: as §1, §2
as §3, with “After the reaction, 10 µL of kinase detection reagent was added to each well and reacted at 25°C for 30 minutes.” left out, “seconds. […]” for “seconds.”

[4] = target: T4, ALK(L1196M) (Homo sapiens, UniProt Q9UM73, L1196M); assay: as above; assay type: biochemical; settings: final ATP 50 µM, read-out: Kinase half maximal inhibitory concentration IC50 ALK^L1196M
T4 construct: purchased Carna
T4 sequence (Q9UM73 19-1620 L1196M): as the sequence (Q9UM73 19-1620) above, with L1178M counted along it
Method: as §1, §2
as §3, with “After the reaction, 10 µL of kinase detection reagent was added to each well and reacted at 25°C for 30 minutes.” left out, “seconds. […]” for “seconds.”

[5] = target: T5, ALK(G1202R) (Homo sapiens, UniProt Q9UM73, G1202R); assay: as above; assay type: biochemical; settings: final ATP 50 µM, read-out: Kinase half maximal inhibitory concentration IC50 ALK^G1202R
T5 construct: purchased Carna
T5 sequence (Q9UM73 19-1620 G1202R): as the sequence (Q9UM73 19-1620) above, with G1184R counted along it
Method: as §1, §2, §3
ALK (G1202R) kinase inhibition assay method: The preparation method for the working solution of the test compound was the same as for the ALK kinase. […] The subsequent steps were the same as for ALK kinase.
as §4

[6] = target: ROS1 (Homo sapiens, UniProt P08922); assay: as above; assay type: biochemical; settings: read-out: Kinase half maximal inhibitory concentration IC50 ROS1
Chain of ROS1 (P08922 28-2347): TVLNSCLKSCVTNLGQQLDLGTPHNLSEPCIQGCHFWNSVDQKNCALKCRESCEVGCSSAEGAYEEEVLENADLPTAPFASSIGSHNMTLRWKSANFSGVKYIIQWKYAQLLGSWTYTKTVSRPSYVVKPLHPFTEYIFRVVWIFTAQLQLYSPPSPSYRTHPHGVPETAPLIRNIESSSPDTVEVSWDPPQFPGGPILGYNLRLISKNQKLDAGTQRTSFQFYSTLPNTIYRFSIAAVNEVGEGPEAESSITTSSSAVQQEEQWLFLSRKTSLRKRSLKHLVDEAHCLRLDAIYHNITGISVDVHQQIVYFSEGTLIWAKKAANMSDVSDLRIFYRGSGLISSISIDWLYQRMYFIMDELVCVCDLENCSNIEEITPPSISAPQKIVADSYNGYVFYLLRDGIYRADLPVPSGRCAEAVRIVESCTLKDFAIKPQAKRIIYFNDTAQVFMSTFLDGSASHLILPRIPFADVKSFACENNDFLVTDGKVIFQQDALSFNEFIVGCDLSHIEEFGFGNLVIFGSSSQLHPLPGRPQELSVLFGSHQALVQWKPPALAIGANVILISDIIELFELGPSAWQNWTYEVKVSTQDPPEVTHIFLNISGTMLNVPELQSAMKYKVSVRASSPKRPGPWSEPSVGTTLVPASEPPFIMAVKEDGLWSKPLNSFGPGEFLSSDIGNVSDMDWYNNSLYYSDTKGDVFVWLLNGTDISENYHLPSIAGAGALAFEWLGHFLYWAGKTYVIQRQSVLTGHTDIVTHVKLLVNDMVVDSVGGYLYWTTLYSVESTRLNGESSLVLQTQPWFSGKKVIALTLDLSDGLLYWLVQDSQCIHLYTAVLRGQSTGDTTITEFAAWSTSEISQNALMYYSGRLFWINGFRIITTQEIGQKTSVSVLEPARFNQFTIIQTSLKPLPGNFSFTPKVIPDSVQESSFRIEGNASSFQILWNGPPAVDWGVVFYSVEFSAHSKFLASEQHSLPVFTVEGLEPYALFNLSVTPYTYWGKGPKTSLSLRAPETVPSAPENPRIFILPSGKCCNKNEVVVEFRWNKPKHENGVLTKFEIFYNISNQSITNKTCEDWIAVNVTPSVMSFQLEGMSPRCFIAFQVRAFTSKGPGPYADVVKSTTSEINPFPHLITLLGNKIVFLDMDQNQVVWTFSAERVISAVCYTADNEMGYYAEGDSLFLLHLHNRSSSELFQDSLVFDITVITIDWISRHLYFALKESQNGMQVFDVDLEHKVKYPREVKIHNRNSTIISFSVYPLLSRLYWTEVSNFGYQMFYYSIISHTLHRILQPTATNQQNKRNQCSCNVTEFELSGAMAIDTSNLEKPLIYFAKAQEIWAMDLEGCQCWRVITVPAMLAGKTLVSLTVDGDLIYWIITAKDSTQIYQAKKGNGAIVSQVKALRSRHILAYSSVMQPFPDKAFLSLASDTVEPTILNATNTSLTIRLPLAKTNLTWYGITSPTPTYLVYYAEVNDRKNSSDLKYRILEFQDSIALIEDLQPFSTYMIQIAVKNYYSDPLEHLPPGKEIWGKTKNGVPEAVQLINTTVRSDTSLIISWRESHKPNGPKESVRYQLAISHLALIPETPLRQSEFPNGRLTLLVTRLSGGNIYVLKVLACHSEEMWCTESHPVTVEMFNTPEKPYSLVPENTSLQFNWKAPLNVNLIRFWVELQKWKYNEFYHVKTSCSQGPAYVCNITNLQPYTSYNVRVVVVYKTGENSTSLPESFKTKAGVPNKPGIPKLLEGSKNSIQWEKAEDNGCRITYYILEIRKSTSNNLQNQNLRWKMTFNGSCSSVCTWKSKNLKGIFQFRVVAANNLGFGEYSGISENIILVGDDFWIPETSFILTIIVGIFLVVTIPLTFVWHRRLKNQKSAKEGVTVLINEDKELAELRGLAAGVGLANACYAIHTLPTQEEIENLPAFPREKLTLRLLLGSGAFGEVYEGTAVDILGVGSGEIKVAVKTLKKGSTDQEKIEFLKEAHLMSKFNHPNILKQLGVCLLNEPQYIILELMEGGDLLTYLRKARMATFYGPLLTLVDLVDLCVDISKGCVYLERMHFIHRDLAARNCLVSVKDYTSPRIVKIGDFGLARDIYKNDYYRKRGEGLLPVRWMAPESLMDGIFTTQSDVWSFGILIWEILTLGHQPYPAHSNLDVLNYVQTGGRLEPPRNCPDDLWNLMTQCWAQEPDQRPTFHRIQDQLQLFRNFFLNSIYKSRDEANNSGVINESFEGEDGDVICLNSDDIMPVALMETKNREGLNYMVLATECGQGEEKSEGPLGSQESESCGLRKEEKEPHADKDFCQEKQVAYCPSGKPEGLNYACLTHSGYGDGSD
Method: as §1, §2
as §3, with “After the reaction, 10 µL of kinase detection reagent was added to each well and reacted at 25°C for 30 minutes.” left out, “seconds. […]” for “seconds.”

[7] = target: T1, ALK(G1202R/L1196M); assay: In vitro kinase inhibitory activity assay, Experimental method 2 (ADP-Glo); assay type: biochemical; settings: Experimental method 2; ATP 5.0 µM, substrate IGF1; read-out: Kinase half maximal inhibitory concentration IC50 ALK^G1202R/L1196M
Method: as §1
(§5) Experimental materials: ALK (G1202R/L1196M) Active and TRKB were purchased from Carna; IGF1 was purchased from GenScript; PolyE4Y1 was purchased from SIGMA; ADP-Glo™ Reagent was purchased from Promega; ATP was purchased from Promega; Kinase Detection Reagent was purchased from Promega; microplate reader ( PerkinElmer).
Reaction system: ALK(G1202R/L1196M) reaction concentration 8.63 nM, ATP concentration 5.0 µM, substrate IGF1 concentration 0.2 µg/µL. ALK(G1202R/L1196M) kinase buffer was 40 mM Tris-HCl (pH 7.5) + 20 mM magnesium chloride + 0.1 mg/mL BSA + 50 µM DTT.
(§6) ALK(G1202R/L1196M) and TRKB detection method: 2 µL of kinase and 1 µL of compound were added to a 384-well plate; 2 µL of substrate/ATP mixture was added and incubated at room temperature in the dark for 60 minutes; 5 µL of ADP-Glo™ reagent was added and incubated at room temperature for 40 minutes; 10 µL of kinase detection reagent was added and incubated at room temperature for 30 minutes; the plate was read on a microplate reader, and luminescence was recorded (integration time set to 0.5 seconds).
as §4

[8] = target: T2, TRKB; assay: as above; assay type: biochemical; settings: Experimental method 2; ATP 5.0 µM, substrate PolyE4Y1; read-out: Kinase half maximal inhibitory concentration IC50 TRKB
Method: as §1, §5
TRKB reaction concentration 4.47 nM, ATP concentration 5.0 µM, substrate PolyE4Y1 concentration 0.2 µg/µL. TRKB kinase buffer was 40 mM Tris-HCl (pH 7.5) + 20 mM magnesium chloride + 2.5 mM manganese chloride + 0.1mg/mL BSA+ 50 µM DTT.
as §6, §4

[9] = test system: Ba/F3-EML4-ALK-G1202R/L1196M; assay: Anti-proliferative activity test on Ba/F3 cell lines (CellTiter-Glo); assay type: cell-based
Method: (§7) • (1) Cell culture: The cell lines were cultured in an incubator at 37°C with 5% CO2. Regular passaging was performed, and cells in the logarithmic growth phase were selected for plating; • (2) Preparation of compound storage plate: The test compounds were prepared into a 10 mM solution with DMSO (Stock Con.); The compounds were then prepared into a 1 mM solution with DMSO (Work Con.); 1 µL of the stock solution was mixed with 9 µL of DMSO to prepare a 10 µL work solution. • (3) Preparation of 1000× compound storage plate (tube): The compounds were 3-fold serially diluted from […] to the lowest concentration, for a total of 8 concentrations; • (4) Preparation of 20× compound working solution: 98 µL of cell culture medium was added to a flat-bottomed 96-well transparent drug plate. From the 1000× compound storage plate, 2 µL of the compound was pipetted into the cell culture medium in the 96-well transparent drug plate. In the solvent control, 2 µL of DMSO was added. After the compound or DMSO was added, the mixture was homogenized using a pipette. • (5) Cells were stained with trypan blue and viable cells were counted to ensure a cell viability of 90% or more. The cell concentration was adjusted to an appropriate concentration; • (6) 95 µL of cell suspension (2000 cells/well) was added to each well of the compound assay cell plate, and cell-free culture medium containing 0.1% DMSO was added to the Min control wells; • (7) Administration in the compound assay cell plate: 5 µL of 20× compound working solution was added to the cell culture plate, 5 µL of DMSO-cell culture medium mixture was added to the Max control wells, and the final concentration of DMSO was 0.1%; • (8) The culture plate was then incubated in an incubator at 37°C with 5% CO2 for 72 hours; • (9) The following operations were conducted in accordance with the instructions of the Promega CellTiter-Glo Luminescent Cell Viability Assay Kit (Promega-G7573): CellTiter-Glo buffer was thawed and brought to room temperature; CellTiter-Glo substrate was brought to room temperature; CellTiter-Glo buffer was added to a bottle of CellTiter-Glo substrate to dissolve the substrate, thereby preparing CellTiter-Glo working solution; The mixture was slowly vortexed and shaken to be fully dissolved; The cell culture plate was removed and allowed to equilibrate to room temperature for 10 minutes; 50 µL (equal to half the volume of cell culture medium in each well) of CellTiter-Glo working solution was added to each well; The culture plate was shaken on an orbital shaker for 2 minutes to induce cell lysis; The plate was then left at room temperature for 10 minutes to stabilize the luminescent signal; The luminescent signal was detected using a SpectraMax Paradigm plate reader; Cell viability assay was conducted using CellTiter-Glo luminescence method.
(§8) Data analysis: The corresponding […] value (RLU) for each well was obtained from SpectraMax Paradigm readings. […] The inhibition rates corresponding to compounds at different concentrations were calculated in Excel, and the inhibition rate curves were plotted using GraphPad Prism software to calculate relevant parameters, including the maximum and minimum inhibition rates of the cells and the IC50 value.

[10] = test system: Ba/F3-TEL-TRKB; assay: as above; assay type: cell-based; settings: Mus musculus, BaF3; 72 hours; read-out: Half maximal inhibitory concentration IC50 for cells Ba/F3-TEL-TRKB
Method: as §7, §8

[11] = HMS CLint (liver) test, hepatocyte metabolic stability; assay type: in vitro ADME; settings: 0.5 × 10^6 cells/mL, up to 90 minutes
Method: The metabolic stability of the compounds of the present disclosure was tested in human and mouse hepatocytes.
• (1) Test compound (10 mM); Control: 7-ethoxycoumarin (30 mM), 7-hydroxycoumarin (reference substance, 30 mM); • Mouse hepatocytes with cell viability of 73.8%, supplier Cat No.: BioreclamationIVTM005052; • Human hepatocytes with cell viability of 94.6%, supplier Cat No.: Bioreclamation IVTX008001. • (2) Buffer system: Thawing medium: Williams' medium E containing 5% fetal bovine serum, 30% Percoll solution, and other auxiliary materials.
Incubation medium: Williams' medium E (without phenol red) containing 2 mM L-glutamine and 25 mM 4-(2-hydroxyethyl)-1-piperazineethanesulfonic acid.
Stop solution: acetonitrile containing 200 ng/mL tolbutamide and labetalol as internal standard. […]
The residual rates of the test compound and the control compound were determined using the following formula: Residual rate (%) = (Peak area ratio of compound to internal standard at any time point)/(Peak area ratio of compound to internal standard at 0 minutes) × 100% [formula]
The elimination rate constant (k) of the test compound and the control compound in hepatocytes was calculated by plotting the logarithm of the residual rate against time. […]

T1 sequence (Q9UM73 19-1620 L1196M/G1202R): as the sequence (Q9UM73 19-1620) above, with L1178M, G1184R counted along it

Compound | IC50 [1] [nM] | IC50 [2] [nM] | IC50 [3] [nM] | IC50 [4] [nM] | IC50 [5] [nM] | IC50 [6] [nM] | IC50 [7] [nM] | IC50 [8] [nM] | IC50 ([9]; Ba/F3 EML4-ALK-G1202R-L1196M, 72 hours, read-out: Half maximal inhibitory concentration IC50 for cells Ba/F3-EML4-ALK-G1202R/L1196 M) [nM] | selectivity: inhibition against ALK-mutant cells versus TRKB phenotypic cells ([9]; stronger inhibition of ALK-mutant cells, relatively weaker of TRKB phenotypic cells) | IC50 [10] [nM] | CLint scaled ([11]; Human hepatocytes) [mL/min/kg] | CLint scaled ([11]; Mouse hepatocytes) [mL/min/kg]
CON=C1NC(C)(C)COc2ccc(F)cc2CN2c3nc4c1cnn4cc3OC[C@H]2C(F)F [Compound 001] | 12.4 | 2.2 | 22.2 | 12.8 | 16.9 | 17.3 | – | – | – | – | – | – | –
CC#Cc1nn2cc3c4nc2c1C(=O)NC(C)(C)COc1ccc(F)cc1CN4[C@H](C(F)F)CO3 [Compound 018] | – | – | – | – | – | – | 0.7 | 4.9 | 1.1 | excellent selectivity | 6.9 | < 17.8 | 291

— patent publication EP4559919A1, “TRICYCLIC-CONTAINING MACROCYCLIC COMPOUND AND USE THEREOF” (Medshine Discovery Inc., priority 2022, dated 2024)
